Experiments:
[1] = target: T1, 5-hydroxytryptamine receptor 1A (Homo sapiens, UniProt P08908); type: functional, cell-based
T1 sequence (P08908 whole entry): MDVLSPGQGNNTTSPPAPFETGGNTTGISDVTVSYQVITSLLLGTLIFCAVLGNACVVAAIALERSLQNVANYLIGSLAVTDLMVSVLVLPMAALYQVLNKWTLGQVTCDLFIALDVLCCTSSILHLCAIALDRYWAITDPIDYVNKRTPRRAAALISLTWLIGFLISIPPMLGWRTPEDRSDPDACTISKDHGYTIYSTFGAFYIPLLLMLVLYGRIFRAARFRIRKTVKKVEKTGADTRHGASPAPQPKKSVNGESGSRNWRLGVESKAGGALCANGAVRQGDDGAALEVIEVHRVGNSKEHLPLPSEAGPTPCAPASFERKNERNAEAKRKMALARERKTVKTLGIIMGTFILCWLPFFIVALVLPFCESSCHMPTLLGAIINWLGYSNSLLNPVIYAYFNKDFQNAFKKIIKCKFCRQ

[2] = target: Gamma-aminobutyric acid receptor subunit alpha-1 (Rattus norvegicus, UniProt P62813); type: functional
Sequence of Gamma-aminobutyric acid receptor subunit alpha-1 (P62813 whole entry): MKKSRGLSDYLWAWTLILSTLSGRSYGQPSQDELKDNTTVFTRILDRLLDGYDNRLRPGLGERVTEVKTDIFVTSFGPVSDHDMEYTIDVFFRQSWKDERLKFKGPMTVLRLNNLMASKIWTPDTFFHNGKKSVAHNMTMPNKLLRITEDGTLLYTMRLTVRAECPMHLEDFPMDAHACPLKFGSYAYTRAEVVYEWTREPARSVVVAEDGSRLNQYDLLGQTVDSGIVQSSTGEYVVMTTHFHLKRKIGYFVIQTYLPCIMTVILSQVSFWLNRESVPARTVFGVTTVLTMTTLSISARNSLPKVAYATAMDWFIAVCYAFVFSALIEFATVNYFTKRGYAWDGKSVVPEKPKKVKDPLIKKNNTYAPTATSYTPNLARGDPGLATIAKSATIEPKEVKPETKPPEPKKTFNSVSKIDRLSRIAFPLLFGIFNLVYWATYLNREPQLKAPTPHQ

[3] = target: Beta-2 adrenergic receptor (Homo sapiens, UniProt P07550); type: functional, cell-based
Sequence of Beta-2 adrenergic receptor (P07550 whole entry): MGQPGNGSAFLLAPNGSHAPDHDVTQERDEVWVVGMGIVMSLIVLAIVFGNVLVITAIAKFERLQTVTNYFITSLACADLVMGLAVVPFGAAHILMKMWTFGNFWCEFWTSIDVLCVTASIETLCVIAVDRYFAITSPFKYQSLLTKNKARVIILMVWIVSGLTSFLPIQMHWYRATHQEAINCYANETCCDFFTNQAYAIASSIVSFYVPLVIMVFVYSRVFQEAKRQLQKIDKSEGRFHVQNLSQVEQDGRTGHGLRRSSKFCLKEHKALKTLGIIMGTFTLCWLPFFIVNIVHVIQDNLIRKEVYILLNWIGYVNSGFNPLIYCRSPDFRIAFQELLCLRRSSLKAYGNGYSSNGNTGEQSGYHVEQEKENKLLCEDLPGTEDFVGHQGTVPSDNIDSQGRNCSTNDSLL

[4] = target: T2, Adenosine receptor A1 (Homo sapiens, UniProt P30542)
T2 sequence (P30542 whole entry): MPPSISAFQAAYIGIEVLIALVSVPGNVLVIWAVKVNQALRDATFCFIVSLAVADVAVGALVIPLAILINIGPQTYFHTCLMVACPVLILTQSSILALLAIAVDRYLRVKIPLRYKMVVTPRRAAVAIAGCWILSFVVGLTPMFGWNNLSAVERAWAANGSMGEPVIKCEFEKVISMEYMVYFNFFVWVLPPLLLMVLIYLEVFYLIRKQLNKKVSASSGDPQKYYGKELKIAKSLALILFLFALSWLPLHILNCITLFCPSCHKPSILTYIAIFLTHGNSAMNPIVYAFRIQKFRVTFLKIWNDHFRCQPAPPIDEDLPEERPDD

[5] = target: Mu-type opioid receptor (Homo sapiens, UniProt P35372)
Sequence of Mu-type opioid receptor (P35372 whole entry): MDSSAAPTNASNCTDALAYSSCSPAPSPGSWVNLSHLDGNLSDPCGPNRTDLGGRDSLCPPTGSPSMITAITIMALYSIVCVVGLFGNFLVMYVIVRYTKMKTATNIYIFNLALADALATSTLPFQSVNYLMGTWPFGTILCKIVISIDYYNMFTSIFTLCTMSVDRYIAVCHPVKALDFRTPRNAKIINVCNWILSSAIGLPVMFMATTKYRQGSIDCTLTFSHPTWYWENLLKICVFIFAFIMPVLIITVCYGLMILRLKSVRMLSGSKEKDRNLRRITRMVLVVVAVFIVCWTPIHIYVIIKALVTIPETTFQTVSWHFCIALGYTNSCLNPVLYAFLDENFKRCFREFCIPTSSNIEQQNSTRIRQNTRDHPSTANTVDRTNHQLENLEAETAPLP

[6] = target: T3, Muscarinic acetylcholine receptor M2 (Homo sapiens, UniProt P08172); type: functional, cell-based
T3 sequence (P08172 whole entry): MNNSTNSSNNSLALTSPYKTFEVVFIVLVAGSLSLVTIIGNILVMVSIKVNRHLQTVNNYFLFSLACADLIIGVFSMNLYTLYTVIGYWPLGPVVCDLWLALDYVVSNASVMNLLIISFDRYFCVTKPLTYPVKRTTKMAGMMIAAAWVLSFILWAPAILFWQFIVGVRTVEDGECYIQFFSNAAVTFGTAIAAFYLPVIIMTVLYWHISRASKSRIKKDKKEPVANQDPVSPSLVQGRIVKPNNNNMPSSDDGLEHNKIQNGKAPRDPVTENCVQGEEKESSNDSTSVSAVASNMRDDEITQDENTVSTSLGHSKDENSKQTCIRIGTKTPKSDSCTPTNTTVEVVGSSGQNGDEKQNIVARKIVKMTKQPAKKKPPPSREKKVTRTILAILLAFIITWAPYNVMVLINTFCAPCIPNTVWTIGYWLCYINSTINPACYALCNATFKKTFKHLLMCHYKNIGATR

[7] = target: T4, Adenosine receptor A3 (Homo sapiens, UniProt P0DMS8)
T4 sequence (P0DMS8 whole entry): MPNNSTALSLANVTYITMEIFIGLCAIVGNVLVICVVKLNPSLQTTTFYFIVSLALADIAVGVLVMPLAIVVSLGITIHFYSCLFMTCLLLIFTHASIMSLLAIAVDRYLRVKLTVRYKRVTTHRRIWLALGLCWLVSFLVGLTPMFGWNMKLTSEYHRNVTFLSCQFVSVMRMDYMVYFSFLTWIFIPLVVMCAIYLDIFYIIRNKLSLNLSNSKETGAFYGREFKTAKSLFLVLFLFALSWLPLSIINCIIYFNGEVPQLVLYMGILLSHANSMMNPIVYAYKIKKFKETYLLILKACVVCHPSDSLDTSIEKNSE

[8] = target: Cannabinoid receptor 1 (Homo sapiens, UniProt P21554); type: functional, cell-based
Sequence of Cannabinoid receptor 1 (P21554 whole entry): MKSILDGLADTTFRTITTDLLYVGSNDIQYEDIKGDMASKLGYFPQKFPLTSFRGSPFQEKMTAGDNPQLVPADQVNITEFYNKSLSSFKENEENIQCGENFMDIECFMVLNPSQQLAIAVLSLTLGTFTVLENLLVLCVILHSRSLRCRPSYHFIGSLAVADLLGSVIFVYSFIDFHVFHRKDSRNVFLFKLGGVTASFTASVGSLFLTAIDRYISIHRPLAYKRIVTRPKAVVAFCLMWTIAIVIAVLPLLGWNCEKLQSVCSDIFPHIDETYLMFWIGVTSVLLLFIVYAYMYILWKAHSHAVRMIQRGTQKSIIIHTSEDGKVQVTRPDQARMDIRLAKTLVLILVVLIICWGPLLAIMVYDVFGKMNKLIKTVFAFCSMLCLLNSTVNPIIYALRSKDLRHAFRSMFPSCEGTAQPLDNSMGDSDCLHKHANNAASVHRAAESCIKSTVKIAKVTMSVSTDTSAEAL

[9] = target: T5, Endothelin-1 receptor (Homo sapiens, UniProt P25101)
T5 sequence (P25101 whole entry): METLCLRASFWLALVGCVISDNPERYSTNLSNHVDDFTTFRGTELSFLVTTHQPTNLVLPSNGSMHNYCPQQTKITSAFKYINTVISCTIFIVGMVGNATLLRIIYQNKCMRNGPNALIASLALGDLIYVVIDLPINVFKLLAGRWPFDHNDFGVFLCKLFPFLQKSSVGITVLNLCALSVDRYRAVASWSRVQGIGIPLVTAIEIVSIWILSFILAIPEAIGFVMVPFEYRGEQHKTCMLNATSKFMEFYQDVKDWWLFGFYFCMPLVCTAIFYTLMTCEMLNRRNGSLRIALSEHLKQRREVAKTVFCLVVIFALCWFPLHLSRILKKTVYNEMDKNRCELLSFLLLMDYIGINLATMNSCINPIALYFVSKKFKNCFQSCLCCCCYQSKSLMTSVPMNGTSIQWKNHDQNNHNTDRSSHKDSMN

[10] = target: T6, Thromboxane A2 receptor (Homo sapiens, UniProt P21731)
T6 sequence (P21731 whole entry): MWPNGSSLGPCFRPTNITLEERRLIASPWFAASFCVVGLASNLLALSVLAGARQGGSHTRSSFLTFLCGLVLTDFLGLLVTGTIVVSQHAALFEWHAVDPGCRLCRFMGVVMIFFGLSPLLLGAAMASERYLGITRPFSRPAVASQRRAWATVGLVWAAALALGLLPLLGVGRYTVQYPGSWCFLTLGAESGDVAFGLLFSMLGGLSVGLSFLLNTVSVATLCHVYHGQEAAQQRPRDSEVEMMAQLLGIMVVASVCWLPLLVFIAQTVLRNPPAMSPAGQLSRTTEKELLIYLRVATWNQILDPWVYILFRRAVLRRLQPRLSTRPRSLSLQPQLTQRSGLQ

[11] = target: Histamine H2 receptor (Homo sapiens, UniProt P25021); type: functional, cell-based
Sequence of Histamine H2 receptor (P25021 whole entry): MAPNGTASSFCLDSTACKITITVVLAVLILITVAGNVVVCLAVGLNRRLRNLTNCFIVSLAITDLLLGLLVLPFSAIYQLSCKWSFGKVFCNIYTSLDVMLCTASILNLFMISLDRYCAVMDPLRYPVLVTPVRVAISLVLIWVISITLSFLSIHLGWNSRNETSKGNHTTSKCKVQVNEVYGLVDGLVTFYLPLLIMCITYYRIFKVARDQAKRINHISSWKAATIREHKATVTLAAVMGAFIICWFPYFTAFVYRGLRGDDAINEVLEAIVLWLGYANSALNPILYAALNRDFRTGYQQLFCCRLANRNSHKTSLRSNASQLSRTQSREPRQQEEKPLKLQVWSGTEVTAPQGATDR
Also: assay procedure not described here.

| Structure (SMILES) | AC50 [1] | AC50 [2] | AC50 [4] | AC50 [10] | AC50 [11] | AC50 [3] | AC50 [5] | AC50 [6] | AC50 [7] | AC50 [8] | AC50 [9] |
| --- | --- | --- | --- | --- | --- | --- | --- | --- | --- | --- | --- |
| CCOc1cc([C@@H](CS(C)(=O)=O)N2C(=O)c3cccc(NC(C)=O)c3C2=O)ccc1OC | > 30 µM | > 30 µM | > 30 µM |  |  | > 30 µM | > 30 µM | > 30 µM | > 30 µM | > 30 µM | > 30 µM |
| Cc1nnc(SCC2=C(C(=O)O)N3C(=O)[C@@H](NC(=O)Cn4cnnn4)[C@H]3SC2)s1 [CEFAZOLIN] | > 300 µM | > 300 µM | > 300 µM |  | > 30 µM | > 300 µM | > 300 µM | > 300 µM | > 300 µM | > 300 µM | > 300 µM |
| CC(C)(O/N=C(\C(=O)N[C@@H]1C(=O)N2C(C(=O)[O-])=C(C[n+]3ccccc3)CS[C@H]12)c1csc(N)n1)C(=O)O [CEFTAZIDIME] | > 300 µM | > 300 µM | > 300 µM |  | > 30 µM | > 300 µM | > 300 µM | > 300 µM | > 300 µM | > 300 µM | > 300 µM |
| Cc1cc(C2CCCCC2)n(O)c(=O)c1 [CICLOPIROX] |  |  |  |  |  |  |  | > 30 µM | > 30 µM |  |  |
| Clc1ccc(Cn2c(CN3CCCC3)nc3ccccc32)cc1 [CLEMIZOLE] | > 30 µM | > 30 µM | > 30 µM |  |  | > 30 µM | > 30 µM | > 10 µM | > 30 µM | > 30 µM | > 30 µM |

More lines, main results first:

| AC50 [1] | AC50 [2] | AC50 [4] | AC50 [10] | AC50 [11] | Structure (SMILES) | AC50 [3] | AC50 [5] | AC50 [6] | AC50 [7] | AC50 [8] | AC50 [9] |
| --- | --- | --- | --- | --- | --- | --- | --- | --- | --- | --- | --- |
| > 30 µM | > 30 µM | > 30 µM | > 30 µM | > 30 µM | CC(=O)Nc1ccc(CC(=O)O)cc1 [ACTARIT] |  |  | > 30 µM | > 30 µM | > 30 µM | > 30 µM |
| > 30 µM | > 30 µM | > 30 µM | > 30 µM | > 30 µM | CC(C(=O)O)c1ccc2oc(-c3ccc(Cl)cc3)nc2c1 (stereo not drawn) [BENOXAPROFEN] |  |  | > 30 µM | > 30 µM | > 30 µM | > 30 µM |
| > 30 µM | > 30 µM | > 30 µM |  | > 30 µM | CC1(C)S[C@@H]2[C@H](NC(=O)C(C(=O)O)c3ccccc3)C(=O)N2[C@H]1C(=O)O (stereo partly drawn) [CARBENICILLIN] | > 30 µM |  | > 30 µM | > 30 µM | > 30 µM | > 30 µM |
| > 30 µM | > 30 µM | > 30 µM | > 30 µM | > 30 µM | CC=CC1=C(C(=O)O)N2C(=O)[C@@H](NC(=O)[C@H](N)c3ccc(O)cc3)[C@H]2SC1 [CEFPROZIL] |  |  | > 30 µM | > 30 µM |  |  |
| > 30 µM | > 30 µM | > 30 µM |  | > 30 µM | CCC(=O)O[C@]1(C(=O)CCl)[C@@H](C)C[C@H]2[C@@H]3CCC4=CC(=O)C=C[C@]4(C)[C@@]3(F)[C@@H](O)C[C@@]21C [CLOBETASOL PROPIONATE] | > 30 µM |  | > 30 µM | > 30 µM | > 30 µM | > 30 µM |

Source: ChEMBL document CHEMBL5291721, “A preclinical secondary pharmacology resource illuminates target-adverse drug reaction associations of marketed drugs” (Nat Commun, 2023)
